Target: T1, human NaV 1.8 (Homo sapiens, UniProt Q9Y5Y9)
T1 construct: expressed in transfected cells; host or cells: HEK (recombinant cell line)
Experiment: Automated whole-cell patch clamp (Qube384) voltage-clamp recordings of sodium currents in HEK-NaV1.8 cell line
Type: cell-based
Conditions: read-out: Potency category (human NaV 1.8 IC50)
How it was run: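 HEK cells expressing NaV1.8 with b3, whole-cell automated voltage clamp at room temperature or 19° C.; CsF-based internal, pH 7.4 external. State-dependent (−120 mV, V1/2 4 s, −10 mV test pulses) and 10/20 Hz 40-pulse protocols; ~12 min compound, vehicle-corrected, IC50 by 4-parameter logistic fit.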

T1 sequence (Q9Y5Y9 whole entry): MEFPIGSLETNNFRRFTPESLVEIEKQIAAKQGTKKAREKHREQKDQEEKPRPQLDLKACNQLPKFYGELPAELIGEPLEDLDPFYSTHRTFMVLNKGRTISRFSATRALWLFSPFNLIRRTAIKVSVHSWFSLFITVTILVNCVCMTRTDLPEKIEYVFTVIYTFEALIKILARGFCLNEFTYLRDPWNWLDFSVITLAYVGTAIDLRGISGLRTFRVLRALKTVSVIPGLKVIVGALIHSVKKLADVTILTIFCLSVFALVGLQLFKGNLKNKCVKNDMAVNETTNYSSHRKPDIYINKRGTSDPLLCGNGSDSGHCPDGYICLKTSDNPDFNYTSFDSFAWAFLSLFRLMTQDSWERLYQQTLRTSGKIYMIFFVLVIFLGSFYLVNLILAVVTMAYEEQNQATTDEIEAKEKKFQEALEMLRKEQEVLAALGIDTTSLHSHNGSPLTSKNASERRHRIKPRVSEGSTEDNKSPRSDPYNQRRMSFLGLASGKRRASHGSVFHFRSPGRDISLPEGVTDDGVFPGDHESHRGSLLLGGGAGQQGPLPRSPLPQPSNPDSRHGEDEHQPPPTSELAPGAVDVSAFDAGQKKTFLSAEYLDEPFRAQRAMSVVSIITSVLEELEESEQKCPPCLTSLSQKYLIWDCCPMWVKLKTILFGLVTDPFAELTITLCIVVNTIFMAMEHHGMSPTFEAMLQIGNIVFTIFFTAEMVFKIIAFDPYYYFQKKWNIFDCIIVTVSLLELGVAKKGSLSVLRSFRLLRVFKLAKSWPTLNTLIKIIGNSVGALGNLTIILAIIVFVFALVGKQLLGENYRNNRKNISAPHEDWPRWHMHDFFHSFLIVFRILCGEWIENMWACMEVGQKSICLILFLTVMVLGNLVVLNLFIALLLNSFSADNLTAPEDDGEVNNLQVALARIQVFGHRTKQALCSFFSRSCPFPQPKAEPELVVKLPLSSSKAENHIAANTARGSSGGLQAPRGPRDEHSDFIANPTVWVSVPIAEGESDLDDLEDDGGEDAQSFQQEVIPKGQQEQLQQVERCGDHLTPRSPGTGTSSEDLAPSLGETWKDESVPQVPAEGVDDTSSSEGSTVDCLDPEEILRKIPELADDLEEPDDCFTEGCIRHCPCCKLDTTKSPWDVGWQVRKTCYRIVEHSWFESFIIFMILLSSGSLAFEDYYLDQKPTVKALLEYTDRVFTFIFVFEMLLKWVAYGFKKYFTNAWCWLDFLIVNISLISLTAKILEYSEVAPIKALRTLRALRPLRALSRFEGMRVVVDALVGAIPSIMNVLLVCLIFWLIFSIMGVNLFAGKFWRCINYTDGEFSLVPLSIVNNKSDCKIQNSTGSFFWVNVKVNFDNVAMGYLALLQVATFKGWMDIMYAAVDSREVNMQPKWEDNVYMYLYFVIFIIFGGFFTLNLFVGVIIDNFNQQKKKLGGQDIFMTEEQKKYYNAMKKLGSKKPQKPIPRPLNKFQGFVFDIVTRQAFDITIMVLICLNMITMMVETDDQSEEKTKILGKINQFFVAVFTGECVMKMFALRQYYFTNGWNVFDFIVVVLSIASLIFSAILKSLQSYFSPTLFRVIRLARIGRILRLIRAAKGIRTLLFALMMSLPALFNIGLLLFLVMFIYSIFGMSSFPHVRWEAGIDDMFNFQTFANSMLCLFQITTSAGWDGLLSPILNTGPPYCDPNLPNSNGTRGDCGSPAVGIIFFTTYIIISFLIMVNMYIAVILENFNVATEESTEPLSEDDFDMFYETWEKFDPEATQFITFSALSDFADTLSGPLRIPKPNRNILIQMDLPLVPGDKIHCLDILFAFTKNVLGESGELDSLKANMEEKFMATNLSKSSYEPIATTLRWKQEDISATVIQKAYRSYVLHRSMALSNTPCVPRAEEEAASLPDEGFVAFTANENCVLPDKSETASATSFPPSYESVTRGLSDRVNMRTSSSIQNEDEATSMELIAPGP

IC50 | Compound
≤ 100 nM | Cc1c(C(C)(F)F)nn(C[C@H]2C[C@@H](C(F)(F)F)C2)c1C(=O)Nc1ccnc(S(C)(=N)=O)c1 (single isomer, unassigned) [Example 31a, 3-(1,1-difluoroethyl)-4-methyl-N-(2-(S-methylsulfonimidoyl)pyridin-4-yl)-1-(((cis)-3-(trifluoromethyl)cyclobutyl)methyl)-1H-pyrazole-5-carboxamide]
≤ 100 nM | CS(=N)(=O)c1cc(NC(=O)c2c(C(F)(F)F)c(C3CC3)nn2CC23CC2CC(F)(F)C3)ccn1 (single isomer, unassigned) [Example 95c, 3-Cyclopropyl-1-((3,3-difluorobicyclo[3.1.0]hexan-1-yl)methyl)-N-(2-(S-methylsulfonimidoyl)pyridin-4-yl)-4-(trifluoromethyl)-1H-pyrazole-5-carboxamide]
≤ 100 nM | CC1(Cn2nc(C3CC(F)(F)C3)c(C(F)(F)F)c2C(=O)Nc2ccnc(S(C)(=N)=O)c2)CC(F)(F)C1 (single isomer, unassigned) [Example 57b, 1-((3,3-Difluoro-1-methylcyclobutyl)methyl)-3-(3,3-difluorocyclobutyl)-N-(2-(S-methylsulfonimidoyl)pyridin-4-yl)-4-(trifluoromethyl)-1H-pyrazole-5-carboxamide]
≤ 100 nM | CS(=N)(=O)c1cc(NC(=O)c2c(C(F)(F)F)c(C3CC3)nn2CC23CC2CC(F)(F)C3)ccn1 (single isomer, unassigned) [Example 95a, 3-Cyclopropyl-1-((3,3-difluorobicyclo[3.1.0]hexan-1-yl)methyl)-N-(2-(S-methylsulfonimidoyl)pyridin-4-yl)-4-(trifluoromethyl)-1H-pyrazole-5-carboxamide]
≤ 100 nM | CS(=N)(=O)c1cc(NC(=O)c2c(C(F)(F)F)c(C3CC3)nn2CC2(C(F)(F)F)CCCC2)ccn1 (single isomer, unassigned) [Example 98b, 3-cyclopropyl-N-(2-(S-methylsulfonimidoyl)pyridin-4-yl)-4-(trifluoromethyl)-1-((1-(trifluoromethyl)cyclopentyl)methyl)-1H-pyrazole-5-carboxamide]
≤ 100 nM | Cc1c(C(C)(F)F)nn(CC2(C)CC(F)(F)C2)c1C(=O)Nc1ccnc(S(C)(=N)=O)c1 (single isomer, unassigned) [Example 5a, 1-((3,3-difluoro-1-methylcyclobutyl)methyl)-3-(1,1-difluoroethyl)-4-methyl-N-(2-(S-methylsulfonimidoyl)pyridin-4-yl)-1H-pyrazole-5-carboxamide]
≤ 100 nM | CC1(Cn2nc(C34CC(F)(C3)C4)c(C(F)F)c2C(=O)Nc2cccc(S(C)(=N)=O)c2)CC(F)(F)C1 (single isomer, unassigned) [Example 113a, 1-((3,3-Difluoro-1-methylcyclobutyl)methyl)-4-(difluoromethyl)-3-(3-fluorobicyclo[1.1.1]pentan-1-yl)-N-(3-(S-methylsulfonimidoyl)phenyl)-1H-pyrazole-5-carboxamide]
≤ 100 nM | CC1(Cn2nc(C3(C)CC3)c(C(F)(F)F)c2C(=O)Nc2ccnc(S(C)(=N)=O)c2)CC(F)(F)C1 (single isomer, unassigned) [Example 69a, 1-((3,3-difluoro-1-methylcyclobutyl)methyl)-3-(1-methylcyclopropyl)-N-(2-(S-methylsulfonimidoyl)pyridin-4-yl)-4-(trifluoromethyl)-1H-pyrazole-5-carboxamide]
≤ 100 nM | CC1(Cn2nc(C3CC3)c(C(F)(F)F)c2C(=O)Nc2ccnc(S(C)(=O)=NC#N)c2)CC(F)(F)C1 (single isomer, unassigned) [Example 142b, N-(2-(N-Cyano-S-methylsulfonimidoyl)pyridin-4-yl)-3-cyclopropyl-1-((3,3-difluoro-1-methylcyclobutyl)methyl)-4-(trifluoromethyl)-1H-pyrazole-5-carboxamide]
≤ 100 nM | C[S@](=N)(=O)c1cc(NC(=O)c2c(C(F)(F)F)c(C3CC3)nn2C[C@@H]2C(F)(F)C23CC3)ccn1 (single isomer, unassigned) [Example 79d, 3-cyclopropyl-1-((2,2-difluorospiro[2.2]pentan-1-yl)methyl)-N-(2-(S-methylsulfonimidoyl)pyridin-4-yl)-4-(trifluoromethyl)-1H-pyrazole-5-carboxamide]
≤ 100 nM | CS(=N)(=O)c1cc(NC(=O)c2c(C(F)(F)F)c(C3CC3)nn2CC2C(F)(F)C23CCC3)ccn1 (single isomer, unassigned) [Example 136c, 3-Cyclopropyl-1-((2,2-difluorospiro[2.3]hexan-1-yl)methyl)-N-(2-(S-methylsulfonimidoyl)pyridin-4-yl)-4-(trifluoromethyl)-1H-pyrazole-5-carboxamide]
≤ 100 nM | CS(=N)(=O)c1cc(NC(=O)c2c(C(F)(F)F)c(C3CC3)nn2CC23CC(C(F)(F)F)(C2)C3)ccn1 (single isomer, unassigned) [Example 23b, 3-cyclopropyl-N-(2-(S-methylsulfonimidoyl)pyridin-4-yl)-4-(trifluoromethyl)-1-((3-(trifluoromethyl)bicyclo[1.1.1]pentan-1-yl)methyl)-1H-pyrazole-5-carboxamide]
≤ 100 nM | C[S@](=N)(=O)c1cc(NC(=O)c2c(C(F)(F)F)c(C3CC3)nn2C[C@@H]2CC23CC3)ccn1 (single isomer, unassigned) [Example 78b, 3-cyclopropyl-N-(2-(S-methylsulfonimidoyl)pyridin-4-yl)-1-(spiro[2.2]pentan-1-ylmethyl)-4-(trifluoromethyl)-1H-pyrazole-5-carboxamide]
≤ 100 nM | CS(=N)(=O)c1cc(NC(=O)c2c(C(F)(F)F)c(C3CC3)nn2CC2(C(F)(F)F)CCCC2)ccn1 (single isomer, unassigned) [Example 98a, 3-cyclopropyl-N-(2-(S-methylsulfonimidoyl)pyridin-4-yl)-4-(trifluoromethyl)-1-((1-(trifluoromethyl)cyclopentyl)methyl)-1H-pyrazole-5-carboxamide]
≤ 100 nM | CC1(Cn2nc(C3(F)CC3)c(C(F)(F)F)c2C(=O)Nc2cccc(S(C)(=N)=O)c2)CC(F)(F)C1 (single isomer, unassigned) [Example 109a, 1-((3,3-Difluoro-1-methylcyclobutyl)methyl)-3-(1-fluorocyclopropyl)-N-(3-(S-methylsulfonimidoyl)phenyl)-4-(trifluoromethyl)-1H-pyrazole-5-carboxamide]
≤ 100 nM | CC1(Cn2nc(C3(F)CC3)c(C(F)(F)F)c2C(=O)Nc2cccc(S(=N)(=O)C(F)(F)F)c2)CC(F)(F)C1 (stereo not drawn) [Example 131, 1-((3,3-Difluoro-1-methylcyclobutyl)methyl)-3-(1-fluorocyclopropyl)-4-(trifluoromethyl)-N-(3-(S-(trifluoromethyl)sulfonimidoyl)phenyl)-1H-pyrazole-5-carboxamide]
≤ 100 nM | Cc1c(C(C)(F)F)nn(CC2(C)CC(F)(F)C2)c1C(=O)Nc1ccnc(S(C)(=N)=O)c1 (single isomer, unassigned) [Example 5b, 1-((3,3-difluoro-1-methylcyclobutyl)methyl)-3-(1,1-difluoroethyl)-4-methyl-N-(2-(S-methylsulfonimidoyl)pyridin-4-yl)-1H-pyrazole-5-carboxamide]
